Two compounds from article PMC12498388, “Niraparib Demonstrates Therapeutic Potential in Multiple Sclerosis through Inhibition of IL-17A Receptor Interaction and Promotion of Remyelination” (ACS Chemical Neuroscience, 2025) can be followed below.

Test [1] addresses T1, IL-17A with IL-17RA/IL-17RC receptor (HEK-Blue IL-17 reporter cells) (Homo sapiens, UniProt Q16552).
T1 construct: gene IL17A; IL-17A ligand supplied by the manufacturer, added to HEK 293 cells stably transfected with IL-17RA/IL-17RC heterodimeric receptor and Act1 adaptor; SEAP reporter (NF-kB/AP-1); with Interleukin-17 receptor A; Interleukin-17 receptor C
The test can be described thus: SEAP reporter assay in HEK-Blue IL-17 cells, QUANTI-Blue […] nm. It is filed as cell-based. Particulars: IL-17A-stimulated cells, 37 °C overnight, 1 nM to 100 μM, four-parameter fit; indirect downstream reporter read-out (NF-kB/AP-1), binding site not shown experimentally. (Reporter assays use an easily measured gene product as a stand-in for the process of interest.)

The target of test [2] is IL-17RA/IL-17RC heterodimeric receptor (UniProt Q96F46).

Chain of IL-17A (Q16552 24-155): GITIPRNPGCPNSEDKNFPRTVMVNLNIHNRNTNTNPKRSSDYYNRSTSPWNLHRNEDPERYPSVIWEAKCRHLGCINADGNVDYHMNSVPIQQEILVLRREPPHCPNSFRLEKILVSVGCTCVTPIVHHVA

On to `NC(=O)c1cccc2cn(-c3ccc([C@@H]4CCCNC4)cc3)nc12` [Niraparib], for which the IC50 in test [1] came out at 70 µM.
Take “IL-17A (from UniProt Q16552 24-155) (ligand)”: the SEAP release of HEK-Blue IL-17 reporter cells (QUANTI-Blue, 630 nm) with IL-17A; percent inhibition by the small molecule Niraparib, 1 nM to 100 uM (22% at 1 uM, 51% at 10 uM, 99.3% at 100 uM) in test [2] was 99.3%.

Usually IC50 stands for the point on the concentration scale where inhibition reaches its midpoint.
